According to the supplement of paper PMC10307832:

How the values were obtained:
Test in all cases: relative viability (nuclei count vs DMSO), 5 days (fraction); higher = more cells survive
Wnt-C59 + OSI-027 = compound: CC1=NC=CC(=C1)C2=CC=C(C=C2)CC(=O)NC3=CC=C(C=C3)C4=CN=CC=C4 [Wnt-C59] + COc1cccc2cc(-c3nc([C@H]4CC[C@H](C(=O)O)CC4)n4ncnc(N)c34)[nH]c12 [OSI-027] (partner 0.5 µM)
In short: (§1)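 Dosing by pin tool came one day after lung cancer cell lines were seeded in 1536-well plates, using either one drug or a fixed anchor-drug dose plus five library-drug doses (not always all listed) in √10 steps. After 5 days, nuclei were counted on 4× images. Relative viability is treated-well nuclei count divided by vehicle-well nuclei count, and values are medians of duplicate plates.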

Lapatinib + OSI-027 = compound: CS(=O)(=O)CCNCc1ccc(-c2ccc3ncnc(Nc4ccc(OCc5cccc(F)c5)c(Cl)c4)c3c2)o1 [Lapatinib] + COc1cccc2cc(-c3nc([C@H]4CC[C@H](C(=O)O)CC4)n4ncnc(N)c34)[nH]c12 [OSI-027] (partner 0.5 µM)
In short: as §1

Lapatinib + Crizotinib = compound: CS(=O)(=O)CCNCc1ccc(-c2ccc3ncnc(Nc4ccc(OCc5cccc(F)c5)c(Cl)c4)c3c2)o1 [Lapatinib] + C[C@@H](Oc1cc(-c2cnn(C3CCNCC3)c2)cnc1N)c1c(Cl)ccc(F)c1Cl [Crizotinib] (partner 1 µM)
In short: as §1

Lapatinib + Tozasertib = compound: CS(=O)(=O)CCNCc1ccc(-c2ccc3ncnc(Nc4ccc(OCc5cccc(F)c5)c(Cl)c4)c3c2)o1 [Lapatinib] + Cc1cc(Nc2cc(N3CCN(C)CC3)nc(Sc3ccc(NC(=O)C4CC4)cc3)n2)n[nH]1 [Tozasertib] (partner 0.1 µM)
In short: as §1

UMC-11
relative viability (Wnt-C59 + OSI-027; first compound 0.001 µM): 0.464
relative viability (Wnt-C59 + OSI-027; first compound 0.01 µM): 0.495
relative viability (Wnt-C59 + OSI-027; first compound 0.03162 µM): 0.477
relative viability (Wnt-C59 + OSI-027; first compound 0.1 µM): 0.462
relative viability (Lapatinib + OSI-027; first compound 0.02 µM): 0.461
relative viability (Lapatinib + OSI-027; first compound 0.06325 µM): 0.427
relative viability (Lapatinib + OSI-027; first compound 0.2 µM): 0.582
relative viability (Lapatinib + OSI-027; first compound 0.6325 µM): 0.464
relative viability (Lapatinib + OSI-027; first compound 2 µM): 0.465
relative viability (Lapatinib + Crizotinib; first compound 0.02 µM): 0.541
relative viability (Lapatinib + Crizotinib; first compound 0.06325 µM): 0.508
relative viability (Lapatinib + Crizotinib; first compound 0.2 µM): 0.672
relative viability (Lapatinib + Crizotinib; first compound 0.6325 µM): 0.578
relative viability (Lapatinib + Crizotinib; first compound 2 µM): 0.659
relative viability (Lapatinib + Tozasertib; first compound 0.06325 µM): 0.211
relative viability (Lapatinib + Tozasertib; first compound 0.2 µM): 0.209
relative viability (Lapatinib + Tozasertib; first compound 0.6325 µM): 0.184
relative viability (Lapatinib + Tozasertib; first compound 2 µM): 0.211
